Source: PMC4399838, “Antipsychotic-Like Effect of the Muscarinic Acetylcholine Receptor Agonist BuTAC in Non-Human Primates” (PLoS ONE, 2015)
Where two headings read alike, the source gives them in different places.

How the values were obtained:
[1] = target: T1, human M3 muscarinic receptor (Homo sapiens, UniProt P20309); parameters: method as in Watt et al. 2013 [10]; settings: antagonist mode, ref Watt et al. 2013 [10], cited from earlier work
T1 construct: purchased PerkinElmer Life and Analytical Sciences, Boston, MA

[2] = test system: antipsychotic-naïve Cebus Apella monkeys; assay: d-Amphetamine-induced behaviour (unrest, stereotypies, arousal), video rating; format: in vivo; settings: d-amphetamine 0.5 mg/kg
Procedure: Seven male Cebus Apella monkeys were used for evaluation the anti-amphetamine effect and the side effect profile of BuTAC. These monkeys were never before administered antipsychotics and had never experienced EPS, but had previously been administered amphetamine. For further evaluation of the EPS potential of BuTAC, the compound was tested in four male and female monkeys, all sensitized to drug-induced EPS by earlier chronic treatment with classical antipsychotic drugs.
All monkeys received all treatments with at least one week between tests and thus served as their own control. To avoid extended physical contact with the experimenter, the cages were reduced in sized by moving the back wall of the cage closer to the front wall to lightly immobilize the monkey while injecting the test substance in the thigh. This was done at 9 am at test days. After the appropriate pre-treatment time, the monkeys were videotaped in their cages at predefined time points after drug injection.
The rated primate behaviours and symptoms were the following: unrest, stereotypy, arousal, sedation and bradykinesia (Table 1). All monkeys were videotaped in 90-sec. sessions at specific time points throughout the test sessions. The videotapes were rated for amphetamine-induced behaviours and EPS by two experienced raters blinded to the treatment of the animal by means of a rating scale adapted from Peacock et al. and previously described by Andersen et al. (Table 1). In case of any discrepancy between the two ratings, the recording in question was re-evaluated and a rating agreed upon. The monkeys were videotaped at t = 30, 60, 90, 135, 150, 165, 180, 240, 300 min after BuTAC (or vehicle) administration. For the combination studies, d-amphetamine was injected at t = 120 min. Oral dyskinesia was measured in counts per 90 sec. The severity of other behaviours and symptoms were rated on a scale ranging from 0 (not present) to 6 (extreme presence).
For evaluation of anti-amphetamine effects, BuTAC was tested in doses of 0.001, 0.003, 0.01 mg/kg in combination with 0.5 mg/kg of d-amphetamine. BuTAC or peanut oil vehicle was injected s.c. at approximately 9 a.m. Pre-treatment time before s.c. injection of amphetamine was 120 min. For evaluation of side effects, BuTAC was tested alone at doses of 0.001, 0.003 and 0.01 mg/kg in antipsychotic-naïve monkeys and at doses of 0.003 and 0.01 mg/kg in monkeys sensitized to extrapyramidal side effects (EPS) by earlier long-term treatment with first generation antipsychotics. […] None of the animals were sacrificed.
Data from the experiments where BuTAC was administered alone collected at t = 60, 180, 300 min are presented. For the d-amphetamine / BuTAC study, data collected at t(amp) = 60, 120 and 180 min (t = 180, 240, 300 min) are reported. Data were analyzed for overall treatment effects at each time point by means of the non-parametric Friedman’s test for repeated measures. The Student Newman-Keuls comparison procedure was used to analyze for specific dose effects. For all tests, the accepted level of significance was p<0.05.

[3] = target: T1, human M3 muscarinic receptor; assay: GTP-γ-[35S] binding, antibody capture SPA (agonist and antagonist mode); format: biochemical
Procedure: The antibody capture scintillation proximity technique previously described by DeLapp et al was used in a 96-well plate to determine GTP-γ-[35S] binding. One hundred μl (20–40 fmol/well) of membrane preparation from CHO cells that stably express the human M1-M5 muscarinic receptors (PerkinElmer Life and Analytical Sciences, Boston, MA) were incubated with varying concentration of test compound (final concentrations from 50pM to 1μM) for 30 min. One μM final concentration of GDP was added to M2 and M4 receptor membranes before incubation. […] (500 pM final concentration; Perkin Elmer Life and Analytical Sciences) was added to each well followed by 30 min of incubation. Then the labelled membranes were solubilized with 0.27% Nonidet P40 for 30 min where after they were incubated with 20 μl (final dilution of 1:400) of the appropriate rabbit polyclonal Gα antibody (Covance, Princeton, NJ) for 60 min. An anti-Gαq/11 antibody was used for the M1-, M3-, and M5 membranes, whereas an anti-Gαi-3 antibody was used for the M2- and M4 membranes (Eli Lilly and Company, Indianapolis, IN). After 60 min of incubation, 50 μl (1.25 mg/well) anti-rabbit scintillation proximity assay (SPA) beads (GE Healthcare, Piscataway, NJ) were added per well where after the plates were incubated for another 3 h. By use of a Wallac MicroBeta TriLux scintillation counter (PerkinElmer), the plates were centrifuged for 10 min at 700 × g and counted for 1 min per well. The incubations took place at room temperature in GTP-binding assay buffer (20 mM Hepes, 100 mm NaCl, 5 mM MgC12, pH 7.4). The data were analyzed by use of nonlinear regression for a sigmoidal concentration response curve (GraphPad Prism v. 4.0). Data were normalized to a full agonist response (100 μM oxotremorine-M). […] The antagonist percent inhibition data were normalized to data generated with an EC90 concentration of acetylcholine. The mean relative EC50, IC50, and %Emax, and pKi values were calculated as a mean of at least three independent experiments±SEM. In order to obtain relevant comparisons between subtypes, the experimental system is routinely calibrated with reference agonists (oxotremorine-M, pilocarpine, MCN-A343) to measure full and partial agonism as well as to ensure that the system is not under- or over-reporting functional efficacies. The radioligand binding assays have earlier been described.

M2AChR = target: T2, M2AChR (Homo sapiens, UniProt P08172); assay: Competitive radioligand binding
T2 sequence (P08172 1-466): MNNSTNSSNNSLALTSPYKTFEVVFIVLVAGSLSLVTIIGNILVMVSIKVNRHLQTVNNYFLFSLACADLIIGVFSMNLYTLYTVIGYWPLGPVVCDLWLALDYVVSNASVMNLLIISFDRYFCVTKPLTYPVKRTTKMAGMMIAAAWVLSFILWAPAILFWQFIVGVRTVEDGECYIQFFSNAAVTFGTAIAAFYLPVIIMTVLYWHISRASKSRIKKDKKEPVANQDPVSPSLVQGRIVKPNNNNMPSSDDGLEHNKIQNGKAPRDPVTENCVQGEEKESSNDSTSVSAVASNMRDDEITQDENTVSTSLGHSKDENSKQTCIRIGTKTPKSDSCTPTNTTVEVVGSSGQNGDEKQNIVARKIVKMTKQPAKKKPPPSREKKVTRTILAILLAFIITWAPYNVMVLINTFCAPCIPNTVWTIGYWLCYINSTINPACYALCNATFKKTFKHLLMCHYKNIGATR

[4] = BuTAC 0.003 mg/kg s.c., at 180 min
[5] = BuTAC 0.01 mg/kg s.c., at 120 and 180 min

T1 sequence (P20309 whole entry): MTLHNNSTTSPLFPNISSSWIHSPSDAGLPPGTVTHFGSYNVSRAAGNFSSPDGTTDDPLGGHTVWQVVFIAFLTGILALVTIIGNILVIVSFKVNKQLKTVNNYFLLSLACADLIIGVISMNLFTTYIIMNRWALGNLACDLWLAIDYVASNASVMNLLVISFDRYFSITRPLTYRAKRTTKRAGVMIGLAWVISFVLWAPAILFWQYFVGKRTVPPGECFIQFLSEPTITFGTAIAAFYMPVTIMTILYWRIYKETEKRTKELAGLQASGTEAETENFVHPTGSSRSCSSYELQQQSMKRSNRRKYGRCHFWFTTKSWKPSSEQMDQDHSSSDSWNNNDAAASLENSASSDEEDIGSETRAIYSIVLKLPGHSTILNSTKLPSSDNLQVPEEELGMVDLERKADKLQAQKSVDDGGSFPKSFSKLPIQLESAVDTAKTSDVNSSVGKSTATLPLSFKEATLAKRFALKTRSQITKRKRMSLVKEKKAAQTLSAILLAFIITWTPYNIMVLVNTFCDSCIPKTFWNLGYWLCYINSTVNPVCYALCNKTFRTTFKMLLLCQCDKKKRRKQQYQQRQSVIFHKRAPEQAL

| SMILES | Rel pIC50 ([1]; negative log-transformed) [M] | % Inhibition [1] [%] | Effect on d-amphetamine-induced arousal ([2]; BuTAC 0.001 mg/kg s.c., at 60 min) | Effect on amphetamine-induced stereotypies [2, 4] | Effect on amphetamine-induced unrest [2, 4] | Effect on amphetamine-induced stereotypies [2, 5] | Effect on amphetamine-induced unrest [2, 5] | Effect on d-amphetamine-induced arousal ([2]; BuTAC 0.003 and 0.01 mg/kg s.c., at 60, 120 and 180 min) | EC50 [3] [nM] | IC50 [3] [nM] | % Inhibition ([3]; antagonist mode, maximal inhibition of EC90 agonist response) [%] | Emax ([3]; percentage of maximum 100 μM oxotremorine-M signal) [%] | Ki (M2AChR) [nM] |
| --- | --- | --- | --- | --- | --- | --- | --- | --- | --- | --- | --- | --- | --- |
| CCCCSc1nsnc1[C@H]1CN2CCC[C@H]1C2 [BuTAC, (5R,6R)-6-(3-butylthio-1,2,5-thiadiazol-4-yl)-1-azabicyclo[3.2.1]octane] | 8.55 ± 8.59 | 100.00 ± 0.00 | counteracted | significantly reduced | significantly counteracted | significantly reduced | significantly counteracted | counteracted | – | – | – | – | – |
| CCCSc1nsnc1[C@H]1CN2CCC[C@H]1C2 [PTAC, (5R,6R) 6-(3-propylthio-1,2,5-thiadiazol-4-yl)-1-azabicyclo-[3.2.1]-octane] | – | – | – | – | – | – | – | – | 1.95 | 20.4 | 90.45 ± 3.52 | 11.9 ± 3.07 | 3.8 |
